According to patent US7691805B2, “Antimicrobial compounds” (Neobiotics AB, priority 2004, dated 2010):
Values after ≈ are worked out from the molar mass of the structure shown.

Experiments:
[1] = system: Staphylococci incl. multiresistant MRSA; assay: Agar well diffusion; conditions: 40 ul of 1 mg/ml in DMSO per well
[2] = system: CNS incl. resistant and multiresistant MRSE; assay: Agar well diffusion; conditions: 40 ul of 1 mg/ml in DMSO per well
[3] = system: Streptococcus: group B; assay: Agar well diffusion; conditions: 40 ul of 1 mg/ml in DMSO per well
[4] = system: Streptococcus: group C; assay: Agar well diffusion; conditions: 40 ul of 1 mg/ml in DMSO per well
[5] = system: Streptococcus: group G; assay: Agar well diffusion; conditions: 40 ul of 1 mg/ml in DMSO per well
[6] = system: Streptococcus: group A; assay: Agar well diffusion; conditions: 40 ul of 1 mg/ml in DMSO per well
[7] = system: L. monocytogenes; assay: Agar well diffusion; conditions: 40 ul of 1 mg/ml in DMSO per well
[8] = system: S. pneumoniae; assay: Agar well diffusion; conditions: 40 ul of 1 mg/ml in DMSO per well
[9] = system: E. coli and other Gram-negatives; assay: Agar well diffusion; conditions: for antibacterial effect: E. coli and other Gram-negatives, 40 ul of 1 mg/ml in DMSO per well
[10] = system: α-haemolytic Streptococci; assay: Agar well diffusion; conditions: 40 ul of 1 mg/ml in DMSO per well
[11] = system: MRSA; assay: Growth inhibition of clinical isolates; conditions: approximately 100 strains of MRSA, several with additional resistance markers
[12] = system: Aspergillus niger ATCC 16404; assay: Antifungal MIC in Sabouraud broth; type: cell-based; conditions: 25° C. for 7 days; inoculum 10^3-10^4 cfu/ml
Procedure: (§1) The minimal inhibitory concentration (MIC) was determined using a method with Sabouraud broth (Becton Dickinson) and an initial inoculum 10^3-10^4 cfu/ml. Polypropylene 96-well plates (Nunc) were incubated at 25° C. for 48 h (for Candida albicans ATCC 10231) or 7 days (for Aspergillus niger ATCC 16404). The MIC was taken as the lowest drug concentration at which noticeable growth was inhibited. The experiments were performed in duplicate.

[13] = system: Candida albicans ATCC 10231; assay: Antifungal MIC in Sabouraud broth; type: cell-based; conditions: 25° C. for 48 h; inoculum 10^3-10^4 cfu/ml
Procedure: as §1

[14] = system: S.aureus; assay: MIC by broth dilution; type: cell-based; conditions: growth media without DMSO
Procedure: (§2) MIC/MBC determinations were performed by broth dilution according to established procedures, well known for a person skilled in the art.

[15] = system: GAS; assay: MIC by broth dilution; type: cell-based, group A Streptococci; conditions: growth media without DMSO
Procedure: as §2

[16] = Solubility; type: physicochemical; conditions: KCl gradient eluent during ion exchange isolation
[17] = system: streptococcal challenge; assay: Lethal streptococcal challenge in the mouse; type: in vivo
[18] = system: labial herpes; assay: Topical application in softening cream to a beginning labial herpes outbreak; type: in vivo, human; conditions: 0.2 ml solution (0.1 g/l) in softening cream on the lip; performed twice
Procedure: Cp1 was added to a softening cream and 0.2 ml solution (0.1 g/l) was applied to an area of a beginning labial herpes outbreak on the lip of a person. After 3-4 hours the symptoms was gone. The experiment was performed twice.

Row | Structure (SMILES) | antibacterial effect [1] | antibacterial effect [2] | antibacterial effect [3] | antibacterial effect [4] | antibacterial effect [5] | antibacterial effect [6] | antibacterial effect [7] | antibacterial effect [8] | antibacterial effect [9] | antibacterial effect [10] | growth inhibition of MRSA strains [11] | MIC Aspergillus niger ATCC 16404 [12] [µg/mL] | MIC Candida albicans ATCC 10231 [13] | MIC [14] | MIC [15] | solubility in the presence of salts [16] | protective capacity for lethal streptococcal challenge [17] | time after which the symptoms were gone [18] [h] | activity against gram-negative bacteria [9]
1 | CC(=O)NC(Cc1ccccc1)C(=O)NCC(NC(=O)C(CC(C)C)NC(=O)C(CCCNC(=N)N)NC(=O)OCc1ccccc1)C(C)C (stereo not drawn) [(AcPhe^5)Cp1] | + | + | + | + | + | + | + | + | − | − | strongly inhibited in their growth |  |  |  |  |  |  |  | 
2 | CC(C)CC(NC(=O)C(CCCN=C(N)N)NC(=O)OCc1ccccc1)C(=O)N[C@H](CNC(=O)/C=C/c1ccccc1)C(C)C (stereo in doubt) [Cp1, (2S)-2-[(N^α-Benzyloxycarbonyl-Arginyl-Leucyl)-Amino]-1-Trans-Cinnamoylamino-3-Methylbutane] | + | + | + | + | + | + | + | + | − | − | strongly inhibited in their growth | 64 (≈ 101 µM) | 32 µg/ml | approximately 16 mg/L | approximately 16 mg/L | weak solubility | strong protective capacity | 3 to 4 | low or no activity
